How the values were obtained:
Type in all cases: cell-based, murine
[1] = tested on: melan-a cells; assay: Cell survival rate (CCK-8 assay); conditions: 72 hrs, concentration equal to or lower than 20 μM
Method: Murine melan-a cells (an immortalized, non-tumorigenic murine melanocyte cell line) were obtained from Chinese University of Hong Kong. Cells were cultured in RPMI 1640 medium. Culture medium was supplemented with 10% FBS and 1% penicillin-streptomycin and the cells were incubated at 37° C. in 5% CO2. Melan-a cells were incubated with tetradecanoyl phorbol acetate (TPA) at a concentration of 200 nM. The tested chemical agents (e.g., 6-CEPN and Kojic acid) were individually dissolved as a stock solution at a concentration of 100 mM in 100% dimethyl sulfoxide (DMSO). The stock solution was diluted using culture medium to the desired final concentrations immediately prior to use.
Melan-a cells (10,000 cells/well) were plated in 100 μL 96-well multidishes for at least 24 hours (hrs) prior to use. The cells were treated with serial concentrations of tested chemicals for 72 hrs. After the indicated incubation time, cells were washed three times using PBS and then treated with CCK-8 solution (0.5 mg/mL) for 1.5 hours. Absorbance was measured at 490 nm using Victor X4 Multilabel Plate Reader (PerkinElmer, Mass., USA). Values were expressed as the mean cell viability as a percentage of that of the vehicle DMSO (0.1% final volume)-treated cultures.

[2] = tested on: tyrosinase-related protein-1 (TRP1); assay: Western blotting of TRP-1 protein level in melan-a cells; conditions: α-MSH, 72 hrs, 20 μM
Method: Melan-a cells (3×10^5 cells/well) were seeded in 4 mL of culture medium in a 6-well plate for at least 24 hrs prior to use. The cells were treated with α-MSH (1 μM) alone, α-MSH plus plus different concentration of agents for 72 hrs. The cells were washed with cold PBS and then lysed in 100 μL of RIPA buffer containing 1% Nonidet P-40, 0.1% sodium dodecylsulfate, 0.5% sodium deoxycholate, and 2% protease inhibitor at 4° C. Samples were centrifuged at 14,000 rpm for 30 mins at 4° C., and total proteins in the supernatant were separated. 10 μg of denatured proteins were loaded per lane, and separated by 10% SDS-PAGE gel. Proteins were then transferred to Immobilon-P Transfer Membranes (Millipore Co., Bed-ford, Mass.) by semidry transfer. Membranes were incubated with primary antibodies specific for Tyrosinase, tyrosinase-related protein-1 (TRP1), tyrosinase-related protein-2 (TRP2), and microphthalmia-associated transcription factor (MITF). The blots were subsequently washed and incubated with the appropriate secondary antibodies. Immunoreactive protein bands were visualized with enhanced chemiluminescence western blotting detection reagents and quantified using an ODYSSEY Fc Imaging system. The amounts of protein loaded were normalized against a control protein, β-actin.

[3] = tested on: microtubule-associated protein light chain 3 (LC-3); assay: Western blot of LC-3 conversion (autophagy marker); conditions: melan-a cells, α-MSH and TPA, 72 hrs, 6-CEPN 10 or 20 μM
Method: Melan-a cells (3×10^5 cells/well) were seeded in a 6-well plate with 4 mL RPMI 1640 medium and 10% FBS. Melan-a cells were then transfected with 10 nM siRNA against autophagy-related protein 7 (ATG-7) or with the same concentration of a control siRNA, using HiPerfect Transfection Reagent. After 72 hrs of incubation, cell culture medium was replaced. Cells were then treated for 72 hrs with (1) α-MSH (1 μM) and TPA; (2) α-MSH (1 μM), TPA, and 6-CEPN (10 μM); or (3) α-MSH (1 μM), TPA, and 6-CEPN (20 μM). Total protein of cells was collected as described in the Western blotting in Example 2. The expressions of autophagy related proteins ATG-7 and microtubule-associated protein light chain 3 (LC-3) were analyzed by Western blot. LC-3 was selected because it was widely used to monitor autophagy. LC-3 can convert from a cytosolic form (i.e., LC-3 I) to a lipidated form (i.e., LC-3 II), the latter of which is attached to the autophagosome membrane (Mizushima N, et al., Autophagy, 3(6): 542-545 (2007)). ATG-7 is a required component in the conjugation of other autophagy-related proteins (e.g., the conjugation between ATG-12 and […]), which ultimately leads to the formation of autophagosome (“Autophagy Signaling Pathway,” Cell Signaling Technology, revised online October 2012).

## O=C1C[C@@H](c2ccc(O)cc2)Oc2cc(O)c(/C=C/c3ccccc3)c(O)c21 [6-CEPN, 6-C-(E-phenylethenyl)-naringenin]
[1]
  cell survival rate: no significant decrease
[2]
  protein level of TRP-1: significantly suppressed
[3]
  conversion of LC-3 I to LC-3 II: increased the conversion of LC-3 I to LC-3 II
